Measured values published in patent US10391070B2, “Compositions and methods for treating neurological diseases or injury” (MUSC FOUNDATION FOR RESEARCH DEVELOPMENT, priority 2012, dated 2019).

Columns and labels:
corneal kindled seizures = assay: Corneal kindled mouse model; assay type: in vivo; details: mice, 100 mg/kg i.p., 0.25 hrs
Protocol: Mouse studies were performed by NIH Anticonvulsant Screening Program at the National Institute of Neurological Disorders and Stroke (Stables and Kupferberg, 1997) according to the established NIH experimental procedures outlined below. Compounds were delivered into mice by i.p. injection at a dose of 100 mg/kg in sterile 5% DMSO, 95% Neobee (Josey et al., 2013). One of four methods for seizure induction was subsequently administered to mice at 0.25, 0.5, 1, 2 and 4 h after treatment with compound. (1) Subcutaneous PTZ seizure threshold test. PTZ was administered at a concentration of 85 mg/kg, into the loose fold of skin in the midline of the neck. […] (2) Maximal electroshock test. 60 Hz of 50 mA alternating current was delivered for 0.2 s by corneal electrodes. Mice were considered protected from seizures when the hindlimb tonic extensor was absent (White et al., 1995). (3) Minimal clonic seizure (6 Hz) test. 6 Hz of 32 mA or 44 mA alternating current was delivered for 3 s by corneal electrodes to elicit a psychomotor seizure. Mice were considered protected from seizures when the automatistic behaviors were absent (Barton et al., 2001). (4) Corneal kindled mouse model. […]

[1] = Presence in mouse brain by LC-MS; assay type: in vivo; details: mice, i.p. daily for three weeks, brain 2 hours after final injection
Protocol: VK2 is synthesized in situ where it is needed. […] Utilizing small synthetic VK analog that can perform similarly to VK2 is of novelty for epileptic treatment. Mice were under I.P. daily injection of 2q for three weeks and their brains were harvested 2 hours after the final injection. The mouse brains were extracted with organic solvent. The presence and the level of 2q were determined using LC-MS techniques (FIG. 9). The presence of 2q was detected via mass spectrometry in the mice brain 2 hours after i.p. injections.

Compound	Avg seizure score (corneal kindled seizures)	N/F (animals protected/animals tested) (corneal kindled seizures)	presence in brain (LC-MS) [1]
C#CCNC1=CC(=O)c2ccccc2C1=O [Compound 2h, 2-(prop-2-yn-1-ylamino)naphthalene-1,4-dione]	3.75	2/4	
O=C1C=C(NCc2cccc(Cl)c2)C(=O)c2ccccc21 [Compound 2q, 2-((3-chlorobenzyl)amino)naphthalene-1,4-dione]			detected
